Data published in US20120052017A1, “METHOD FOR PRODUCING CONTRAST AGENT FOR OPTICAL IMAGING” (CANON KABUSHIKI KAISHA, priority 2010, published 2012).

Experiments:
[1] = Composition ratio of DSPC and ICG: ICG dissolved in chloroform; type: physicochemical; conditions: 47.2 mM DSPC in the ICG chloroform solution
Description: 0.5, 1 or 2 Molar Equivalents of DSPC was Added to 55 mg of ICG.
3 mL of chloroform was added to each of these ICG-DSPC mixtures. The mixtures were heated at 40° C. for two minutes, and ultrasonic irradiation was performed for one minute. […] These suspensions were filtered with a filter having a pore size of 0.45 μm to remove insoluble matters. Each of the filtrates was diluted 3000-fold with methanol.

[2] = Solubility of ICG in dichloromethane when phospholipid was added; type: physicochemical; conditions: phospholipid not added; inferred by comparison with ICG-methanol solution
Description: 2 molar equivalents of a phospholipid was added to 5.5 mg of ICG. As the phospholipid, DSPC or DOPE was used. Each of these ICG-phospholipid mixtures was dissolved in 2 mL of dichloromethane. Controls were brepared by dissolving in 10 G in methanol or dichloromethane. All these 10 G solutions were filtered with a filter having a pore size of 0.2 μm and then diluted 500-fold with dichloromethane.

CC1(C)C(/C=C/C=C/C=C/C=C2/N(CCCCS(=O)(=O)[O-])c3ccc4ccccc4c3C2(C)C)=[N+](CCCCS(=O)(=O)[O-])c2ccc3ccccc3c21.[Na+] [ICG, indocyanine green]
concentration of ICG dissolved [1]: 15700 µM
ICG dissolved in dichloromethane [2]: approximately 0.6 mM
